In US11214578B2, “Urea/carbamates FAAH MAGL or dual FAAH/MAGL inhibitors and uses thereof” (Northeastern University, priority 2014, dated 2022) one finds IC50 data, which are given here for 13 compounds.

Holding throughout (assay type): biochemical
In one experiment the target is T1, Rat MAGL (rMAGL) (Rattus norvegicus, UniProt Q8R431).
T1 construct: made in house; host or cells: E. coli
T1 sequence (Q8R431 1-303): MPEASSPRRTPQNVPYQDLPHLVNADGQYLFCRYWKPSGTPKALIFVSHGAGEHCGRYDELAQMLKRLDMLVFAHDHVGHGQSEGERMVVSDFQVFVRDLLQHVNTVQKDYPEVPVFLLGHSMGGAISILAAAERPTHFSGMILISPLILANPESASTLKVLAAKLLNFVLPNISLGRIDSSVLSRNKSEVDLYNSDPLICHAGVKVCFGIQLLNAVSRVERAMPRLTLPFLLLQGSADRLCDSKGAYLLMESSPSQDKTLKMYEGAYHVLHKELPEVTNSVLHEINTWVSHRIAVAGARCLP
The experiment is described as follows: Fluorescent assay protocol for rMAGL. To be noted: recombinant rat MAGL, procedure as for hMAGL; read-out: IC50 rMAGL. How it is done:
(§1) This medium throughput assay involved a 96-well plate format in which hMAGL activity was monitored by the hydrolysis of the substrate 7-hydroxy-6-methoxy-4-methylcoumarin ester (AHMMCE) to form the fluorescent product, coumarin. […] Upon the addition of AHMMCE, the reaction was incubated at 25° C. for 120 min; fluorescence readings were taken every 15 min at 360 nm/460 nm (λexcitation/λemission) using a Synergy HT Plate Reader (Bio-Tek, Winooski, Vt.). […] External standards were used to convert relative fluorescence units to the amount of 4-methylcoumarin formed. All MAGL assays were performed in triplicate for each inhibitor concentration, and IC50 values were calculated using Prizm software (GraphPad Software, Inc., San Diego, Calif.).
Procedure was followed as described for hMAGL.

For a further experiment, the target named is T2, Human FAAH (MBPΔTMhFAAH) (Homo sapiens, UniProt O00519).
T2 construct: made in house; host or cells: E. coli (pMALcE4 vector)
T2 sequence (O00519 30-579 limits assumed): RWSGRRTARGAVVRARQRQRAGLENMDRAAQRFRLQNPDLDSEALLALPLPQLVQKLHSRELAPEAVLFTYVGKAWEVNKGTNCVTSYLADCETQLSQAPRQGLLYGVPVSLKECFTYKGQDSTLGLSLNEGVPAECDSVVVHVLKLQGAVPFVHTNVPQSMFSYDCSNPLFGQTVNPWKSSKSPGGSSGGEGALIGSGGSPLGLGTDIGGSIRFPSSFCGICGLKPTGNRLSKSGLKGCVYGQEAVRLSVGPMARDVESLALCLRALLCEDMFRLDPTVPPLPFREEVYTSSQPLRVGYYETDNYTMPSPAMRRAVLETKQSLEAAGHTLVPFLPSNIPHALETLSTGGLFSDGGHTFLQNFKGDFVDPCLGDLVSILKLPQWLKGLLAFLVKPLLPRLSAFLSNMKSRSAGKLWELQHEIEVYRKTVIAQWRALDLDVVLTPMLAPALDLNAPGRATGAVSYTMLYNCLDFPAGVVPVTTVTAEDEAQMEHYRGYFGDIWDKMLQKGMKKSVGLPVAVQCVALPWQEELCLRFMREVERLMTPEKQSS
In words: Fluorescent assay protocol for hFAAH. The settings on record: human FAAH (MBP fusion, ΔTM), procedure as for rFAAH. As to the method: Human FAAH without putative transmembrane domain following maltose binding protein was expressed in E. coli cells using pMALcE4 vector Alapafuja et al J. Med. Chem. (2012) 55: 10074-89.
Procedure was followed as described for hMAGL, except that arachidonoyl-methyl coumarin amide (AAMCA) was used as fluorigenic substrate. Compounds were diluted in 50:50 DMSO/assay buffer (50 mM HEPES, 1 mM EDTA, 0.1% BSA, pH 7.4) so as to have a final DMSO concentration below 8% in each reaction. For the screening assay, 3 concentrations (1 μM, 10 μM, and 100 μM) of test compounds, 15 μg of ΔTM rFAAH and assay buffer were pre-incubated for 15 min at 25° C. AAMCA (20 μM, 2×Km) was added prior to incubation at 25° C. and kinetic fluorescence reading every 20 minutes (λex=360/λem=460) for 4 hours on a BioTek Synergy HT Microplate Reader (BioTek Instruments, Winooski, Vt.). The fluorescence reading at the 3 hour time point (linear enzyme kinetics) was used to calculate percent inhibition based on control assays without inhibitor present. All FAAH assays were performed in triplicate for each inhibitor concentration, and IC50 values determined using Prizm software (GraphPad Software, Inc.).
Procedure was followed as described for rFAAH.

The target in the next experiment is T3, ΔTM rat FAAH (Rattus norvegicus, UniProt P97612).
T3 construct: Preparation of Transmembrane Domain-Deleted Rat FAAH (ΔTM rFAAH); made in house; host or cells: E. coli
T3 sequence (P97612 30-579 limits assumed): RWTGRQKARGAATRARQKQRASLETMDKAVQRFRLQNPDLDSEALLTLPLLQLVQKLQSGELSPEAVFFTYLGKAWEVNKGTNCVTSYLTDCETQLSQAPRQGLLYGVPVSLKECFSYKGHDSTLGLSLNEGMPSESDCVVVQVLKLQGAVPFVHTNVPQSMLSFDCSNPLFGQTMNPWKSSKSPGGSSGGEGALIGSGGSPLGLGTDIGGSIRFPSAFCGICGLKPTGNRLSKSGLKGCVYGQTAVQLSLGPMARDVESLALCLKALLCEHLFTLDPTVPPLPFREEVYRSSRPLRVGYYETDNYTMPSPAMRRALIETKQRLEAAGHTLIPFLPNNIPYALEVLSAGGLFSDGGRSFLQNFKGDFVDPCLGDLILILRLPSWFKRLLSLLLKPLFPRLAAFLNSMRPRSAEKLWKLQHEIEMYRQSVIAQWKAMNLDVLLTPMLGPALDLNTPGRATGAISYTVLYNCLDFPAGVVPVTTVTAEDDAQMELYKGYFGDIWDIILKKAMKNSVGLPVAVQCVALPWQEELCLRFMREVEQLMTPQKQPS
In words: Fluorescent assay protocol for ΔTM rat FAAH (AAMCA substrate). The settings on record: 15 min preincubation, read-out: IC50 rFAAH. As to the method:
Procedure was followed as described for hMAGL, except that arachidonoyl-methyl coumarin amide (AAMCA) was used as fluorigenic substrate. […] For the screening assay, 3 concentrations (1 μM, 10 μM, and 100 μM) of test compounds, 15 μg of ΔTM rFAAH and assay buffer were pre-incubated for 15 min at 25° C. […] The fluorescence reading at the 3 hour time point (linear enzyme kinetics) was used to calculate percent inhibition based on control assays without inhibitor present. All FAAH assays were performed in triplicate for each inhibitor concentration, and IC50 values determined using Prizm software (GraphPad Software, Inc.).

The target in another experiment is T4, Human MAGL (hMAGL) (Homo sapiens, UniProt Q99685).
T4 construct: hexahistidine; made in house; host or cells: E. coli
T4 sequence (Q99685 1-303): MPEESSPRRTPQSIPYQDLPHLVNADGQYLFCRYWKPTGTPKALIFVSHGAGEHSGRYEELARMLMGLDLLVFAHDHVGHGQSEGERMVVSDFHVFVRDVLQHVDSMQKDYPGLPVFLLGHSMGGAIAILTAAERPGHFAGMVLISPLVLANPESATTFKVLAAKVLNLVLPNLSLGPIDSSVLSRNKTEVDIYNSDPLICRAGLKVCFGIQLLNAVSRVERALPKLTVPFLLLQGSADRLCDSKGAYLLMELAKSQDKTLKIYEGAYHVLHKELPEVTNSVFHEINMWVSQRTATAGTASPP
In words: Fluorescent assay protocol for hMAGL (AHMMCE substrate). To be noted: recombinant human MAGL, AHMMCE substrate, 15 min preincubation; read-out: IC50 hMAGL. How it is done: as §1

As to `NC(=O)c1cccc(-c2cccc(NC(=O)N3CCN(C4c5ccccc5-c5ccccc54)CC3)c2)c1` [Example 8, N-(3′-carbamoyl-[1,1′-biphenyl]-3-yl)-4-(9H-fluoren-9-yl)piperazine-1-carboxamide], the IC50 was above 1000 nM at Rat MAGL (rMAGL), 10 to 100 nM on Human FAAH (MBPΔTMhFAAH), 10 to 100 nM on ΔTM rat FAAH and above 1000 nM on Human MAGL (hMAGL).

`NC(=O)c1cccc(-c2cccc(NC(=O)N3CCN(c4ccccn4)CC3)c2)c1` [Example 9, N-(3′-carbamoyl-[1,1′-biphenyl]-3-yl)-4-(pyridin-2-yl)piperazine-1-carboxamide]: the IC50 at Rat MAGL (rMAGL) was above 1000 nM; on Human FAAH (MBPΔTMhFAAH) it was 10 to 100 nM; on ΔTM rat FAAH, 10 to 100 nM; at Human MAGL (hMAGL), above 1000 nM.

In the case of `NC(=O)c1cccc(-c2cccc(NC(=O)N3CCN(Cc4ccc(-c5ccccc5)cc4)CC3)c2)c1` [Example 10, 4-([1,1′-biphenyl]-4-ylmethyl)-N-(3′-carbamoyl-[1,1′-biphenyl]-3-yl)piperazine-1-carboxamide], the IC50 was above 1000 nM on Rat MAGL (rMAGL), 10 to 100 nM on Human FAAH (MBPΔTMhFAAH), 10 to 100 nM at ΔTM rat FAAH and above 1000 nM at Human MAGL (hMAGL).

`NC(=O)c1cccc(-c2cccc(NC(=O)N3CCN(c4ccccc4)CC3)c2)c1` [Example 11, N-(3′-carbamoyl-[1,1′-biphenyl]-3-yl)-4-phenylpiperazine-1-carboxamide]: the IC50 at Rat MAGL (rMAGL) is above 1000 nM; on Human FAAH (MBPΔTMhFAAH), 10 to 100 nM; at ΔTM rat FAAH it was 10 to 100 nM; at Human MAGL (hMAGL), above 1000 nM.

Consider `NC(=O)c1cccc(-c2cccc(NC(=O)N3CCN(Cc4ccc5ccccc5n4)CC3)c2)c1` [Example 12, N-(3′-carbamoyl-[1,1′-biphenyl]-3-yl)-4-(quinolin-2-ylmethyl)piperazine-1-carboxamide], for which the IC50 is above 1000 nM at Rat MAGL (rMAGL), 10 to 100 nM on Human FAAH (MBPΔTMhFAAH), 10 to 100 nM on ΔTM rat FAAH and above 1000 nM at Human MAGL (hMAGL).

For the compound `N#Cc1cccc(-c2cccc(NC(=O)N3CCN(Cc4ccc5ccccc5n4)CC3)c2)c1` [Example 13, N-(3′-cyano-[1,1′-biphenyl]-3-yl)-4-(quinolin-2-ylmethyl)piperazine-1-carboxamide], the half-maximal inhibitory concentration (IC50) on Rat MAGL (rMAGL) was above 1000 nM; at Human FAAH (MBPΔTMhFAAH) it was 10 to 100 nM; at ΔTM rat FAAH, 10 to 100 nM; on Human MAGL (hMAGL), above 1000 nM.

On to `O=C(Nc1cccc(Oc2ccccc2)c1)N1CCN(Cc2ccc3ccccc3n2)CC1` [Example 14, N-(3-phenoxyphenyl)-4-(quinolin-2-ylmethyl)piperazine-1-carboxamide], for which the IC50 on Rat MAGL (rMAGL), at Human FAAH (MBPΔTMhFAAH), at ΔTM rat FAAH and on Human MAGL (hMAGL) was above 1000 nM each time.

For the compound `N#Cc1cccc(-c2cccc(NC(=O)N3CCC(c4ccccc4)CC3)c2)c1` [Example 15, N-(3′-cyano-[1,1′-biphenyl]-3-yl)-4-phenylpiperidine-1-carboxamide], the IC50 on Rat MAGL (rMAGL), on Human FAAH (MBPΔTMhFAAH), at ΔTM rat FAAH and on Human MAGL (hMAGL) was above 1000 nM in each case.

Consider `N#Cc1cccc(-c2cncc(NC(=O)N3CCC(c4ccccc4)CC3)c2)c1` [Example 16, N-(5-(3-cyanophenyl)pyridin-3-yl)-4-phenylpiperidine-1-carboxamide], for which the IC50 at Rat MAGL (rMAGL), at Human FAAH (MBPΔTMhFAAH), on ΔTM rat FAAH and at Human MAGL (hMAGL) was above 1000 nM each time.

With `N#Cc1cccc(-c2cccc(NC(=O)N3CCN(Cc4cccc(-c5ccccc5)c4)CC3)c2)c1` [Example 17, 4-([1,1′-biphenyl]-3-ylmethyl)-N-(3′-cyano-[1,1′-biphenyl]-3-yl)piperazine-1-carboxamide], the IC50 at Rat MAGL (rMAGL) was above 1000 nM; at Human FAAH (MBPΔTMhFAAH), 10 to 100 nM; at ΔTM rat FAAH it was 10 to 100 nM; on Human MAGL (hMAGL), above 1000 nM.

Regarding `NC(=O)c1cccc(-c2cccc(NC(=O)N3CCN(Cc4cccc(Oc5ccccc5)c4)CC3)c2)c1` [Example 18, N-(3′-carbamoyl-[1,1′-biphenyl]-3-yl)-4-(3-phenoxybenzyl)piperazine-1-carboxamide], the IC50 on Rat MAGL (rMAGL) is above 1000 nM; on Human FAAH (MBPΔTMhFAAH), 110 to 1000 nM; at ΔTM rat FAAH, 10 to 100 nM; at Human MAGL (hMAGL), above 1000 nM.

Regarding `C[C@H]1CN(C(=O)Nc2cccc(-c3cccc(C#N)c3)c2)CCN1Cc1ccc2ccccc2n1` [Example 19, (S)—N-(3′-cyano-[1,1′-biphenyl]-3-yl)-3-methyl-4-(quinolin-2-ylmethyl)piperazine-1-carboxamide], the IC50 is above 1000 nM on Rat MAGL (rMAGL), 110 to 1000 nM at Human FAAH (MBPΔTMhFAAH), 110 to 1000 nM on ΔTM rat FAAH and above 1000 nM at Human MAGL (hMAGL).

In the case of `N#Cc1cccc(-c2cccc(NC(=O)N3CCC4(CC3)CC(=O)c3ccccc3O4)c2)c1` [Example 20, N-(3′-cyano-[1,1′-biphenyl]-3-yl)-4-oxospiro[chromane-2,4′-piperidine]-1′-carboxamide], the IC50 at Rat MAGL (rMAGL) was above 1000 nM; on Human FAAH (MBPΔTMhFAAH), 110 to 1000 nM; on ΔTM rat FAAH it was 110 to 1000 nM; at Human MAGL (hMAGL), above 1000 nM.
